Counter-ions that a name gives are not always drawn.
Assay: drug loading and release from MeHA MN patches in PBS
Type: physicochemical
Protocol: The drug loading capabilities of MeHA MNs was investigated by using model drugs of different molecular weights, mainly fluorescein isothiocyanate (FITC), FITC-Dextran and doxorubicin hydrochloride (Dox). The innate ability of the MeHA MN arrays to absorb fluid is taken advantage of to load the drug molecules into the MN tips. All three drugs are dissolved in PBS which were then used to equilibrate MeHA MN patches. After 10 minutes of incubation with the drug solution, the MNs were left to dry in the fumehood (FIG. 14). The amount of drug encapsulated in the MN was determined by immersing the drug loaded MeHA in 1×PBS. By obtaining a 50 μL of the solution at various time points, the fluorescence intensity was measured to determine the drug release profile of the three different drug molecules.
Next, the release profiles of drugs from the MeHA MN patches were examined.

Row | Molecule | released from the MN patches (MeHA MN patches, 1×PBS, within 30 minutes) [%] | loading into the MN tips through swelling (MeHA MN, 10 minutes incubation with drug solution in PBS)
1 | COc1cccc2c1C(=O)c1c(O)c3c(c(O)c1C2=O)C[C@@](O)(C(=O)CO)C[C@@H]3O[C@H]1C[C@H](N)[C@H](O)[C@H](C)O1 [Dox, doxorubicin hydrochloride] | 50 | 
2 | fluorescein isothiocyanate [FITC] |  | easily loaded
